Reference: US12540163B2 (priority 2021, dated 2026)
Values joined by “and” are separate entries in the source; they are usually repeats but may differ in a detail not shown here. Equal entries are not always repeated.

Key:
hHv1 = hHv1 (Homo sapiens, UniProt Q96D96)
[1] = system: non-capacitated human sperm
[2] = system: non-capacitated human sperm; remark: listed apart in the source

Chain of hHv1 (Q96D96 whole entry): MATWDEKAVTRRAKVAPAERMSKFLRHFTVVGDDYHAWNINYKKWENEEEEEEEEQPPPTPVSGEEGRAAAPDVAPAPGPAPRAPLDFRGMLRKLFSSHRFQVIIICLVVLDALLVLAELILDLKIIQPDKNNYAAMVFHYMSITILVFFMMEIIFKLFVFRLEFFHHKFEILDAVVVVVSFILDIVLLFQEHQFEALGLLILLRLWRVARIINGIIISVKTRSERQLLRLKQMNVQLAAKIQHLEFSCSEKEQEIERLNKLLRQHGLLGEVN

`O=C(O)CN(CCN(CC(=O)O)CC(=O)O)CC(=O)O` [EDTA] was tested, and the “Sperm H+ current V1/2 after application” value (hHv1 in human sperm) was 4 mV and 4 ± 1 mV, the “Sperm H+ current V1/2 shift” value (hHv1 in human sperm) was 11 mV and the “hHv1 in HEK293T cells V1/2 after application” value (hHv1) was −29 ± 3 mV.
In the case of `CC(C)[C@H]1c2ccc(F)cc2CC[C@@]1(CCN(C)CCCc1nc2ccccc2[nH]1)OC(=O)C1CC1` [NNC], the “inhibition of Alb-potentiated [Ca2+]i increase” value [1] was “inhibited”.
With bovine serum albumin [BSA] the “change of pHi” value [2] was “increased the speed of cytoplasmic alkalization” and the “increase of progesterone-induced peak [Ca2+]i” value [1] was 2.2 fold.
